Where two headings read alike, the source gives them in different places.
Tests used:
rat P2X7 = rat P2X7 (Rattus norvegicus (Rat), UniProt Q64663); assay: P2X7 antagonism in recombinant rat P2X7 cells (column headed P2X7 Rat IC50); format: binding
Description: The in vitro affinity of the compounds of the invention for the rat and human P2X7 receptor was determined using a human peripheral blood mononuclear cells (PBMCs), a human whole blood assay, a Ca^2+ flux and radioligand binding assay in recombinant human P2X7 cells and recombinant rat P2X7 cells. […] The data represented in Tables 2 may represent a value from a single determination or when the experiment was run more than once, the data represents the average from between 2-12 runs.
P2X7 Antagonism in Recombinant Human P2X7 Cells or Recombinant Rat P2X7 Cells: […]

P2X7 [1] = molecular target: T1, P2X7 (Homo sapiens (Human), UniProt Q99572); assay: P2X7 antagonism in human peripheral blood mononuclear cells (PBMCs), IL-1β release (LPS + Bz-ATP, ELISA); format: cell-based; settings: P2X7, 10 μM test compound, LPS 30 ng/ml + Bz-ATP 0.5 mM, read-out: PBMC @10 μM (% control)
T1 sequence (Q99572 whole entry): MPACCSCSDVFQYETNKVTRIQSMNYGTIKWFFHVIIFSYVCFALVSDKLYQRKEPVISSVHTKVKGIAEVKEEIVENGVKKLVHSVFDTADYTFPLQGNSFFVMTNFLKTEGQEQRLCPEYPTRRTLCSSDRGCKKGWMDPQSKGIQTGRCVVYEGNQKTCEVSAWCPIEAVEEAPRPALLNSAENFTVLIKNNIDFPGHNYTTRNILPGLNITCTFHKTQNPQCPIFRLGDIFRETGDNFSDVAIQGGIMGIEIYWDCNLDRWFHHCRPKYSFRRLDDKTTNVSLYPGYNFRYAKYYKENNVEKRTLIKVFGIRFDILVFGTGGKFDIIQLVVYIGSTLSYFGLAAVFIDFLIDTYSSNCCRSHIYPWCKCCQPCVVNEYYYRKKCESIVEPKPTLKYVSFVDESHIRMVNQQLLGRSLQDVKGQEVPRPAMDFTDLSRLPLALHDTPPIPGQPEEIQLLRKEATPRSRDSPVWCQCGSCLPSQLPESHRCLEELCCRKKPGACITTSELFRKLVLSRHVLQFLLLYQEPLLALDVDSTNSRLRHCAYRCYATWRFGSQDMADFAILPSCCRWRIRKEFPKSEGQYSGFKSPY
Description: (§1) P2X7 Antagonism in Human Peripheral Blood Mononuclear Cells (PBMCs) and Human Whole Blood.
(§2) Human blood was collected using a blood donor program. PBMCs were isolated from blood using a Ficoll density gradient technique. Briefly, blood was laid on Ficoll solution and centrifuged at ROOM TEMPERATURE for 20 minutes at 2000 rpm. The buffy layer (between red blood cells and plasma) was carefully collected by aspiration, washed with PBS and centrifuged again at 1500 rpm for 15 minutes. The resulting cell pellet was washed and plated on 96 well-plates for experiments. For the Human Whole Blood experiments, 150 μl of human blood was plated on 96 well-plates. Lipopolysaccharide (LPS) (30 ng/ml) was added to each well and incubated for 1 hour. Test compounds were then added and incubated for 30 minutes. The P2X7 agonist, 2′(3′)-O-(4-benzoylbenzoyl) adenosine 5′-triphosphate (Bz-ATP) was then added at a final concentration of 0.5 mM (PBMC) or 1 mM (blood). Cells were incubated for an additional 1.5 hours. At that point, supernatant was collected and stored for IL-1β assay using manufacturer's protocol for enzyme-linked immunosorbant assay (ELISA). Data was expressed as percent control, where control is defined as the difference in IL-1β release in LPS+Bz-ATP samples and LPS only samples. Data was plotted as response (% control) versus concentration to generate IC50 values. […] Data are analyzed and graphed on Graphpad Prism 5. For analysis, each concentration point is averaged from triplicate values and the averaged values are plotted on Graphpad Prism. The IC50 for each compound is then uploaded into 3DX.

P2X7 [2] = molecular target: T1, P2X7; assay: P2X7 antagonism in human whole blood, IL-1β release (LPS + Bz-ATP, ELISA); format: cell-based; settings: LPS 30 ng/ml + Bz-ATP 1 mM
Description: as §1, §2

P2X7 [3] = molecular target: T1, P2X7; assay: Radioligand binding ([3H]A-804598) to membranes of human P2X7-1321N1 cells; settings: human P2X7-1321N1 membranes, tracer tritiated A-804598, 1 hour at 4° C.
Description: P2X7 Antagonism in Recombinant Human P2X7 Cells or Recombinant Rat P2X7 Cells:
human or rat P2X7-1321N1 cells were collected and frozen @ −80° C. On the day of the experiment, cell membrane preparations were made according to standard published methods. […] The compound can be prepared as described in the literature. […] The assay was terminated by filtration (GF/B filters pre-soaked with 0.3% PEI) and washed with washing buffer (Tris-HCl 50 mM). The IC50 generated in the binding assay was corrected for tracer concentration and affinity of the tracer to derive at the affinity (Ki) of the test compounds. The data are presented in Table 2 under the headings: P2X7 human Ki (μM) and P2X7 rat Ki (μM). Data are analyzed and graphed on Graphpad Prism 5. For analysis, each concentration point is averaged from triplicate values and the averaged values are plotted on Graphpad Prism.

[4] = read-out: Human Whole Blood IC50

Sequence of rat P2X7 (Q64663 whole entry): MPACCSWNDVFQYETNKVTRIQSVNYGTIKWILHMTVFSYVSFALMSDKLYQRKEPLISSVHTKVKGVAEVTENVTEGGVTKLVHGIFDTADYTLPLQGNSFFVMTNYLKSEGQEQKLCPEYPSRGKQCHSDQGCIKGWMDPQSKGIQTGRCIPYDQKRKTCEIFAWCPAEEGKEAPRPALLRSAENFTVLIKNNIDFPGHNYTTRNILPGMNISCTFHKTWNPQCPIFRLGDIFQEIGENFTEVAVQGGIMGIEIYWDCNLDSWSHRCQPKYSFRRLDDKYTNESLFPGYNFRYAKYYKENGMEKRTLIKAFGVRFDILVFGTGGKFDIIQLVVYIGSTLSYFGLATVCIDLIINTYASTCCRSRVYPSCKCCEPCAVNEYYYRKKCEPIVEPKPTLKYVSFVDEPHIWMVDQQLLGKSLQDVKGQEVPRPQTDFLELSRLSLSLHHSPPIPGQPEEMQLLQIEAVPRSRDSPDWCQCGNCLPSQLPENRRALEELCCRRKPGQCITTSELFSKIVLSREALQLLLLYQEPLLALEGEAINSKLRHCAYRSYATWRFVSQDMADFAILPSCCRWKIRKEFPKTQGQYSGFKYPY

Compound | IC50 (rat P2X7) [µM] | remaining activity at 10 µM (P2X7 [1]) [%] | IC50 (P2X7 [2]; Human Whole Blood IC50 (μM)) [µM] | Ki (P2X7 [3]) [µM] | IC50 (P2X7 [2]; [4]) [µM]
Cc1nc(-c2ccn[nH]2)c2c(n1)C1CCCC(C2)N1C(=O)c1cccc(Cl)c1Cl (centres unmarked) [Example 1, (2,3-dichlorophenyl)(2-methyl-4-(1H-pyrazol-5-yl)-5,6,7,8,9,10-hexahydro-6,10-epiminocycloocta[d]pyrimidin-11-yl)methanone] | 0.101 | 3.3 | 0.027 | 0.0316 | 
Cc1nc(-c2ccn[nH]2)c2c(n1)[C@@H]1CCC[C@H](C2)N1C(=O)c1ccc(F)cc1Cl [Example 9, (2-chloro-4-fluorophenyl)((6R,10S)-2-methyl-4-(1H-pyrazol-5-yl)-5,6,7,8,9,10-hexahydro-6,10-epiminocycloocta[d]pyrimidin-11-yl)methanone] | > 10 | 91.3 |  |  | 2.96
Cc1nc(-c2ccn[nH]2)c2c(n1)[C@@H]1CCC[C@H](C2)N1C(=O)c1ccc(Cl)c(F)c1Cl [Example 10, (2,4-dichloro-3-fluorophenyl)((6R,10S)-2-methyl-4-(1H-pyrazol-5-yl)-5,6,7,8,9,10-hexahydro-6,10-epiminocycloocta[d]pyrimidin-11-yl)methanone] |  | 22.4 | 0.459 | 0.631 | 
Cc1nc(-c2ccn[nH]2)c2c(n1)[C@@H]1CCC[C@H](C2)N1C(=O)c1cccc(Cl)c1Cl [Example 11, (2,3-dichlorophenyl)((6R,10S)-2-methyl-4-(1H-pyrazol-5-yl)-5,6,7,8,9,10-hexahydro-6,10-epiminocycloocta[d]pyrimidin-11-yl)methanone] | 0.944 | 24.4 | 0.302 | 0.501 | 
Cc1nc(-c2ccn[nH]2)c2c(n1)[C@@H]1CCC[C@H](C2)N1C(=O)c1ccc(Cl)cc1F [Example 12, (4-chloro-2-fluorophenyl)((6R,10S)-2-methyl-4-(1H-pyrazol-5-yl)-5,6,7,8,9,10-hexahydro-6,10-epiminocycloocta[d]pyrimidin-11-yl)methanone] | > 10 | 92.6 |  |  | 6.12
Cc1nc(-c2ccc(F)cc2)c2c(n1)[C@@H]1CCC[C@H](C2)N1C(=O)c1cccc(C(F)(F)F)c1Cl [Example 13, (2-chloro-3-(trifluoromethyl)phenyl)((6R,10S)-4-(4-fluorophenyl)-2-methyl-5,6,7,8,9,10-hexahydro-6,10-epiminocycloocta[d]pyrimidin-11-yl)methanone] | 0.0889 | 22.2 | 5.08 |  | 
Cc1nc(-c2ccc(F)cc2)c2c(n1)[C@@H]1CCC[C@H](C2)N1C(=O)c1ccc(F)cc1Cl [Example 16, (2-chloro-4-fluorophenyl)((6R,10S)-4-(4-fluorophenyl)-2-methyl-5,6,7,8,9,10-hexahydro-6,10-epiminocycloocta[d]pyrimidin-11-yl)methanone] | > 10 | 84.8 | 7.38 |  | 
Cc1nc(-c2ccn[nH]2)c2c(n1)[C@H]1CCC[C@@H](C2)N1C(=O)c1ccc(Cl)cc1Cl [Example 20, (2,4-dichlorophenyl)((6S,10R)-2-methyl-4-(1H-pyrazol-5-yl)-5,6,7,8,9,10-hexahydro-6,10-epiminocycloocta[d]pyrimidin-11-yl)methanone] |  | -9.9 | 0.221 | 0.12 | 
Cc1nc(-c2ccn[nH]2)c2c(n1)[C@H]1CCC[C@@H](C2)N1C(=O)c1ccc(Cl)c(F)c1Cl [Example 23, (2,4-dichloro-3-fluorophenyl)((6S,10R)-2-methyl-4-(1H-pyrazol-5-yl)-5,6,7,8,9,10-hexahydro-6,10-epiminocycloocta[d]pyrimidin-11-yl)methanone] |  | -24.7 | 0.018 | 0.0316 | 
Cc1nc(-c2cnn(C)c2)c2c(n1)[C@H]1CCC[C@@H](C2)N1C(=O)c1cccc(Cl)c1Cl [Example 31, (2,3-dichlorophenyl)((6S,10R)-2-methyl-4-(1-methyl-1H-pyrazol-4-yl)-5,6,7,8,9,10-hexahydro-6,10-epiminocycloocta[d]pyrimidin-11-yl)methanone] | > 10 | -0.9 | 2.67 |  | 
Cc1nc(-c2cnn(C)c2)c2c(n1)[C@H]1CCC[C@@H](C2)N1C(=O)c1ccnc(C(F)(F)F)c1Cl [Example 32, (3-chloro-2-(trifluoromethyl)pyridin-4-yl)((6S,10R)-2-methyl-4-(1-methyl-1H-pyrazol-4-yl)-5,6,7,8,9,10-hexahydro-6,10-epiminocycloocta[d]pyrimidin-11-yl)methanone] | > 10 | 4.8 | 1.58 |  | 
Cc1nc(-c2cnn(C)c2)c2c(n1)[C@H]1CCC[C@@H](C2)N1C(=O)c1ccc(F)c(Cl)c1Cl [Example 33, (2,3-dichloro-4-fluorophenyl)((6S,10R)-2-methyl-4-(1-methyl-1H-pyrazol-4-yl)-5,6,7,8,9,10-hexahydro-6,10-epiminocycloocta[d]pyrimidin-11-yl)methanone] | > 10 | 1.2 |  |  | 1.34
Cc1nc(-c2cnn(C)c2)c2c(n1)[C@H]1CCC[C@@H](C2)N1C(=O)c1cccc(C(F)(F)F)c1F [Example 34, (2-fluoro-3-(trifluoromethyl)phenyl)((6S,10R)-2-methyl-4-(1-methyl-1H-pyrazol-4-yl)-5,6,7,8,9,10-hexahydro-6,10-epiminocycloocta[d]pyrimidin-11-yl)methanone] | > 10 | 3.3 | 8.59 |  | 
Cc1nc(-c2cnn(C)c2)c2c(n1)[C@H]1CCC[C@@H](C2)N1C(=O)c1ccc(Cl)c(F)c1Cl [Example 35, (2,4-dichloro-3-fluorophenyl)((6S,10R)-2-methyl-4-(1-methyl-1H-pyrazol-4-yl)-5,6,7,8,9,10-hexahydro-6,10-epiminocycloocta[d]pyrimidin-11-yl)methanone] | > 10 | 9.1 |  |  | 2.3
Cc1nc(-c2cnn(C)c2)c2c(n1)[C@H]1CCC[C@@H](C2)N1C(=O)c1ccnc(C(F)(F)F)c1F [Example 37, (3-fluoro-2-(trifluoromethyl)pyridin-4-yl)((6S,10R)-2-methyl-4-(1-methyl-1H-pyrazol-4-yl)-5,6,7,8,9,10-hexahydro-6,10-epiminocycloocta[d]pyrimidin-11-yl)methanone] | > 10 | 13.3 |  |  | 20.9
Cc1nc(-c2cnn(C)c2)c2c(n1)[C@H]1CCC[C@@H](C2)N1C(=O)c1ccc(Cl)cc1F [Example 38, (4-chloro-2-fluorophenyl)((6S,10R)-2-methyl-4-(1-methyl-1H-pyrazol-4-yl)-5,6,7,8,9,10-hexahydro-6,10-epiminocycloocta[d]pyrimidin-11-yl)methanone] | > 10 | 46.8 |  |  | > 10
Cc1nc(-c2cnn(C)c2)c2c(n1)[C@H]1CCC[C@@H](C2)N1C(=O)c1cccc(C(F)(F)F)c1C [Example 39, (2-methyl-3-(trifluoromethyl)phenyl)((6S,10R)-2-methyl-4-(1-methyl-1H-pyrazol-4-yl)-5,6,7,8,9,10-hexahydro-6,10-epiminocycloocta[d]pyrimidin-11-yl)methanone] | > 10 | 1 | 1.09 |  | 
Cc1nc(-c2ccnn2C)c2c(n1)[C@H]1CCC[C@@H](C2)N1C(=O)c1ccnc(C(F)(F)F)c1Cl [Example 60, (3-chloro-2-(trifluoromethyl)pyridin-4-yl)((6S,10R)-2-methyl-4-(1-methyl-1H-pyrazol-5-yl)-5,6,7,8,9,10-hexahydro-6,10-epiminocycloocta[d]pyrimidin-11-yl)methanone] | 0.798 | 21.4 | 1.98 |  | 

Reference: patent US10150766B2, “P2X7 modulators” (Jansssen Pharmaceutica NV, priority 2014, dated 2018)
